Results published in EP0604983B1, “Naphthalene derivatives” (Mitsubishi Chemical Corporation, priority 1992, dated 1994).
Marks after values point to notes of the source that are not given here.

test system: KK-Ay male mice; experiment: Blood sugar and blood triglyceride (TG) lowering test in KK-Ay mice, test compound mixed with powder food; format: in vivo; details: KK-Ay male mice; dose c.a. 30 mg/kg/day (footnote a) mixed with powder food for four days; plasma triglyceride 5th day; vs control group
Description: The effect of the compound of the present invention on reducing blood sugar and blood lipid levels based on the ability of improving insulin resistance has been determined by the following test.
KK-Ay male mice of five to six week age were obtained from Nihon CREA. The mice have been bred with a powder feed (MF powders for breeding rats and mice, Oriental Yeast Co.) from 7 days prior to the test. The mice of nine to eighteen week age having body weights of 35 g or more were used for the test.
The blood sugar values were measured by withdrawing blood (20 µl) from animal's tail vein using a heparin-treated capillary, centrifuging the blood to obtain plasma, and measuring the glucose level in the plasma by the glucose-oxidase method. The triglyceride (TG) levels in plasma were measured by the glycerol enzyme method. Five mice in a group having 200 mg/dl or more of the blood sugar level were used for one test.
The test compounds were mixed with powder food such that the average dosage of the former is 10 - 100 mg/kg/day, and the mixture was administered to the mice for four days. Blood was withdrawn from the animal's tail vein before administration, and five days after administration, and blood sugar and TG levels were measured using the methods mentioned above. The amount of the food ingested was measured every day during the test period, and the average of the amounts for four days was calculated.
The ability of reducing blood sugar level was determined as described below. Namely, the means of the blood sugar values at the time before administration of the test compound in a control group (a group to which the test compound was not administered) and an administration group (a group to which the test compound was administered) (such values are referred to as Mcon and Mad, respectively) and the means of the blood sugar values of the control group and the administration group on 5th day after administration (such values are referred to as Con and Ad, respectively) were determined. The blood sugar lowering effect found in the administration group was expressed by the following formula. Blood sugar lowering effect(%) = 1-(Ad/Mad)/(Con/Mcon)x100 [formula]
The blood TG lowering ratio (%) was measured by the same procedure as that described above. All the values were statistically evaluated under significance level P=0.05.

SMILES	TG lowering ratio (%)
O=C1NC(=O)C(=Cc2ccc3cc(OCc4c(F)cccc4C(F)(F)F)ccc3c2)S1 [compound 50]	27.7** %
O=C1NC(=O)C(=Cc2ccc3cc(OCc4cccc(F)c4)ccc3c2)S1 [compound 16]	22.3%
O=C1NC(=O)C(=Cc2ccc3cc(OCc4ccccc4)ccc3c2)S1 [Example 13, 5-(6-benzyloxy-2-naphthyl)-methylene-thiazolidine-2,4-dione]	21.0%
O=C1NC(=O)C(=Cc2ccc3cc(OCc4c(F)cccc4F)ccc3c2)S1 [compound 49]	43.4*** %
O=C1NC(=O)C(=Cc2ccc3cc(OCc4ccccc4F)ccc3c2)S1 [Example 15, 5-[6-(2-fluorobenzyloxy)-2-naphthyl]-methylene-thiazolidine-2,4-dione]	38.8%
O=C1NC(=O)C(=Cc2ccc3cc(OCc4ccc(F)cc4)ccc3c2)S1 [compound 17]	24.4%

same assay, conditions: KK-Ay male mice; dose c.a. 50 mg/kg/day mixed with powder food for four days; plasma triglyceride 5th day; vs control group

SMILES	TG lowering ratio (%)
O=C1NC(=O)C(=Cc2ccc3cc(OCc4ccccc4C(F)(F)F)ccc3c2)S1 [compound 46]	51.0** %
O=C1NC(=O)C(=Cc2ccc3cc(OCc4ccc(C(F)(F)F)cc4)ccc3c2)S1 [compound 48]	25.6%
N#Cc1ccc(COc2ccc3cc(C=C4SC(=O)NC4=O)ccc3c2)cc1 [compound 32]	39.6* %
O=C1NC(=O)C(=Cc2ccc3cc(OCc4ccccc4[N+](=O)[O-])ccc3c2)S1 [compound 33]	16.0%
O=C1NC(=O)C(=Cc2ccc3cc(OCc4ccc([N+](=O)[O-])cc4)ccc3c2)S1 [compound 35]	56.9%
Cc1ccccc1COc1ccc2cc(C=C3SC(=O)NC3=O)ccc2c1 [compound 22]	9.5%
COC(=O)c1ccc(COc2ccc3cc(C=C4SC(=O)NC4=O)ccc3c2)cc1 [compound 39]	16.0%
O=C1NC(=O)C(=Cc2ccc3cc(OCc4ccc(Br)cc4)ccc3c2)S1 [compound 21]	14.7%
O=C1NC(=O)C(=Cc2ccc3cc(OCc4ccccc4Cl)ccc3c2)S1 [compound 18]	53.8* %
O=C1NC(=O)C(=Cc2ccc3cc(OCc4ccc(Cl)cc4)ccc3c2)S1 [compound 19]	21.7%

same assay, conditions: KK-Ay male mice; dose c.a. 100 mg/kg/day (footnote b) mixed with powder food for four days; plasma triglyceride 5th day; vs control group

SMILES	TG lowering ratio (%)
O=C1NC(=O)C(=Cc2ccc3cc(OCCc4ccccc4)ccc3c2)S1 [compound 14]	19.9%

same assay, conditions: KK-Ay male mice; mixed with powder food for four days; Dose: c.a. 10 mg/kg/day; plasma triglyceride (glycerol enzyme method) on 5th day vs control group

SMILES	TG lowering ratio (%)
O=C1NC(=O)C(Cc2ccc3cc(OCc4ccc(Cl)cc4)ccc3c2)S1 (stereo not drawn) [Example 8]	9.4%
CCc1ccc(CCOc2ccc(CC3SC(=O)NC3=O)cc2)nc1 (stereo not drawn) [Pioglitazone, pioglitazone, reference compound]	-4.0%
O=C1NC(=O)C(Cc2ccc3cc(OCc4ccccc4)ccc3c2)S1 (stereo not drawn) [Example 2]	9.1* %
O=C1NC(=O)C(Cc2ccc3cc(OCc4ccccc4C(F)(F)F)ccc3c2)S1 (stereo not drawn) [Example 10]	37.2%
O=C1NC(=O)C(Cc2ccc3cc(OCc4ccccc4Cl)ccc3c2)S1 (stereo not drawn) [Example 7]	28.3%
O=C1NC(=O)C(Cc2ccc3cc(OCc4ccccc4F)ccc3c2)S1 (stereo not drawn) [Example 4, 5-[6-(2-fluorobenzyloxy)-2-naphthyl]-methyl-thiazolidine-2,4-dione]	41.6* %
O=C1NC(=O)C(Cc2ccc3cc(OCc4ccc(F)cc4)ccc3c2)S1 (stereo not drawn) [Example 6]	37.7* %

same assay, conditions: KK-Ay male mice; mixed with powder food for four days; footnote a): Dose c.a. 100 mg/kg/day; plasma triglyceride (glycerol enzyme method) on 5th day vs control group

SMILES	TG lowering ratio (%)
O=C1NC(=O)C(Cc2ccc3cc(OCc4ccccn4)ccc3c2)S1 (stereo not drawn) [Example 1, 5-[6-(2-pyridylmethyloxy)-2-naphthyl]-methyl-thiazolidine-2,4-dione]	56.4%
Cc1c(C)c2c(c(C)c1O)CCC(C)(COc1ccc(CC3SC(=O)NC3=O)cc1)O2 (stereo not drawn) [CS-045, reference compound]	-18.5%
O=C1NC(=O)C(Cc2ccc3cc(Oc4ccccc4)ccc3c2)S1 (stereo not drawn) [Example 3]	31.3%
